Reference: patent publication US9045505B2, “Nitric oxide donors” (University of Otago, priority 2006, dated 2015)

Key:
complex I [1] = assay: Respiration by bovine heart mitochondrial membranes on NADH or succinate; format: biochemical; details: 75 μM, 5 min
Procedure: (a) Effect of MitoSNAP on mitochondrial respiration.
Mitochondrial preparations and incubations.

[2] = tested on: liver or heart mitochondria; assay: Visualisation of S-nitrosated mitochondrial proteins by Cy3 maleimide labelling; format: biochemical, rat; details: 10 μM MitoSNAP or 500 μM diamide, 5 min
Procedure: FIG. 11 is a series of graphs showing S-nitrosation of mitochondrial thiols by MitoSNAP. (a) Time course of S-nitrosation of mitochondrial proteins by MitoSNAP. Liver mitochondria (1 mg protein) were incubated in 1 ml KCl buffer supplemented with rotenone and succinate in the presence of 5 μM MitoSNAP. At various times mitochondria were treated with 10 mM N-ethylmaleimide (NEM), isolated by centrifugation and the S-nitrosothiol content assessed. Data are of a typical experiment showing means±range of duplicate samples for each time point, each measured in duplicate. The experiment was repeated twice. (b) S-nitrosation of mitochondrial proteins by different concentrations of MitoSNAP and SNAP. Aliquots of liver mitochondria were incubated with the indicated concentrations of MitoSNAP or SNAP for […] in the presence or absence of 500 nM FCCP and then assessed for S-nitrosothiol content as in (a). […] Data are of a typical experiment showing means±range of duplicate samples for each time point, each measured in duplicate. […] After further incubation for 5 min at 37° C. in the dark, the medium was removed and the content of S-nitrosated proteins was measured. […] S-nitrosated thiols were then selectively tagged with Cy3 maleimide and protein (10 μg) was then separated on a 12.5% SDS PAGE gel which was stained with coomassie blue and scanned for Cy3 fluorescence. […]

liver mitochondria = assay: Metabolism of MitoSNAP by mitochondria (RP-HPLC of supernatant); format: in vitro ADME, rat
Procedure: FIG. 9 is a series of traces and graphs showing membrane potential-dependent MitoSNAP mitochondrial uptake and NO^• generation. (a-d) Liver mitochondria were incubated in KCl medium supplemented with rotenone in a stirred 3 ml chamber and electrodes were used to measure the concentrations of O2 and NO^• simultaneously. Where indicated succinate (10 mM), OxyHb (5 μM) or FCCP (500 nM) were added. For (a) and (b) 2 mg mitochondrial protein/ml and 20 μM MitoSNAP (a) or SNAP (b) were used. For (c) and (d) 0.5 mg mitochondrial protein/ml and 5 μM MitoSNAP were used. There was no effect of 5 μM MitoNAP on respiration or NO^• production. All traces are from typical experiments repeated at least twice. […] Mitochondria were then pelleted by centrifugation (10,000×g) then aliquots of the supernatant (700 μl) were mixed with 700 μl 0.1% TFA and analyzed by RP-HPLC. The amount of MitoSNAP and MitoNAP were calculated as the percentage of their peak areas relative to the sum of both peak areas.
MitoSNAP, MitoNAP and their derivatives were separated by reverse phase HPLC (RP-HPLC) on a C18 column (Jupiter 300 Å, Phenomenex) with a Widepore C18 guard column (Phenomenex), using a Gilson 321 pump. […] Peaks were detected at 220 nm using a Gilson UV/VIS 151 spectrophotometer. […]

complex I [3] = details: 10 μM
Procedure: (a) Effect of MitoSNAP on mitochondrial respiration. Heart mitochondria (1 mg protein/ml) were incubated in 1 ml KCl medium supplemented with 1 mM phosphate in an oxygen electrode with 5 mM glutamate and 5 mM malate, or succinate, and incubated with 10 μM MitoSNAP, 10 μM MitoNAP or carrier for 2 min (succinate) or 3 min (glutamate/malate), then 250 μM adenosine diphosphate (ADP) was added and the rate of respiration was measured. Respiration in the presence of MitoSNAP is expressed as a percentage of that with MitoNAP, and are means±sem from 3 separate mitochondrial preparations, each determined in triplicate; *p<0.05 by Student's paired t test. […] Bovine heart mitochondrial membranes (0.25 mg protein/ml) were incubated in 1 ml KCl medium in an O2 electrode at 37° C., and incubated with 75 μM MitoSNAP or MitoNAP, or ethanol carrier for 5 min in the presence or absence of rotenone, then 1 mM NADH or 10 mM succinate was added and the rate of respiration was measured. Data are expressed as respiration in the presence of MitoSNAP or MitoNAP as a percentage of the appropriate controls and are means±range of two separate experiments, each determined in triplicate. […] Then protein SNOs were labelled by maleimide-Cy3 and intact mitochondrial respiratory complexes were separated by BN-PAGE which was then scanned for Cy3 fluorescence. […]

For `CC(=O)NC(C(=O)NCCCCC[P+](c1ccccc1)(c1ccccc1)c1ccccc1)C(C)(C)SN=O.CS(=O)(=O)[O-]` (stereo not shown) [MitoSNAP, [5-(2-acetylamino-3-methyl-3-nitrosothio-butyrylamino)-penty1]-triphenylphosphonium methanesulfonate], the “effect on succinate respiration” value (complex I [1]) was “unaffected”, the “inhibition of NADH respiration” value (complex I [1]) was “about 35%” and the “Cy3 labelling of S-nitrosated proteins” value [2] was “S-nitrosation of a large number of different proteins”. The “conversion of MitoSNAP to MitoNAP” value (liver mitochondria; energized mitochondria) was “rapidly consumed”, the “conversion of MitoSNAP to MitoNAP” value (liver mitochondria; unenergized mitochondria (FCCP), compared with energized) was “slower” and the “inhibition of respiration relative to MitoNAP” value (complex I [3]; glutamate/malate) was “about 30%”. For the same compound, the effect on respiration (complex I [3]; succinate) was “very little effect”.
